Assay results: PMC12751000, “Dual Agonist/Antagonist Modulation of α9-Containing Nicotinic Acetylcholine Receptors by 2‑Ammoniumethyl Ethers of Stilbenol and Stilbenol Analogues” (Journal of Medicinal Chemistry, 2025)
“Also recorded” adds a separate entry of the source. Read-outs that look alike come from different tables or passages of the source. Where a SMILES comes first, the peptide text is derived from it. Bridges are numbered along the chain shown (N, C = ends).

Experiments:
hα7 = settings: ref: more recent studies, citation number not given, cited from earlier work
chick α7 nAChRs = settings: cited from earlier work
α7-nAChR = settings: read-out: α7-nAChR affinity (Ki); ref: previously reported, citation number not given; cited from earlier work
[1] = tested on: BzATP-induced release of IL-1β from human monocytic THP-1 cells; assay: BzATP-induced IL-1β release by LPS-primed human monocytic THP-1 cells (ELISA); type: cell-based; settings: for Effect on the inhibitory effect of ACh on BzATP-induced IL-1β release: LPS 1 μg/mL 5 h, BzATP 100 μM 40 min; for Effect on BzATP-induced IL-1β release in the absence of ACh: LPS-primed THP-1
Experimental: THP-1 cells were primed with lipopolysaccharide (LPS; 1 μg/mL, 5 h) followed by stimulation with the P2X7 receptor agonist BzATP (2′/3′-O-(4-benzoylbenzoyl)-adenosine-5′-triphosphate, tri(triethylammonium) salt) for 40 min to induce IL-1β release, which was quantified by ELISA.
Experiments on human monocytic THP-1 cells (German Collection of Microorganisms and Cell Cultures, Braunschweig, Germany, Cat# ACC16) were performed as described before. […] The supernatants were collected and stored for later IL-1β measurements using the Human IL-1β/IL-1F2 DuoSet ELISA from R&D Systems (Minneapolis MN, USA, Cat# DY201). Cell viability was assessed by measuring lactate dehydrogenase (LDH) activity in the supernatants using the CytoTox 96 Non-Radioactive Cytotoxicity Assay (Promega, Madison WI, USA; Cat# G1780). LDH activities were expressed as a percentage of total LDH activity from lysed control cells. Data on the BzATP-induced IL-1β release and LDH activity were analyzed using SPSS (Version 29.0.2.0, IBM, Armonk, NY, United States) and visualized using Inkscape version 0.48.5 r10040 (Free and Open Source Software licensed under the GPL). The data were analyzed first by the Friedman test.

hα9 nAChRs [2] = target: T1, hα9 nAChRs (Homo sapiens, UniProt Q9UGM1); assay: Two-electrode voltage clamp, compound-evoked currents at hα9 nAChRs in Xenopus laevis oocytes; type: cell-based; settings: for n H (Hill coefficient of activation) / EC50: compound applied alone
T1 construct: host or cells: Xenopus laevis oocytes, cRNA-injected

hα9α10 nAChRs [3] = target: T2, hα9α10 nAChRs (Homo sapiens, UniProt Q9GZZ6+Q9UGM1); assay: Two-electrode voltage clamp, inhibition of ACh-evoked currents at hα9α10 nAChRs expressed in Xenopus laevis oocytes; type: cell-based; settings: for n H (Hill coefficient of inhibition) / IC50: 6 μM ACh; for IC50: 5 min preincubation with compound, holding potential −80 mV
T2 construct: host or cells: Xenopus laevis oocytes, cRNA-injected (α9:α10 cRNA ratio 1:1)
From the text: (§1) The protocols were approved by the Animal Ethics Committees of the Victor Chang Cardiac Research Institute, Sydney, and the University of Wollongong (project number AE 20/17). Human α9 and α10 nAChR clones were obtained from OriGene (Rockville, MD, USA) and subcloned into the pT7TS vector. The human α7 nAChR clone, in the plasmid pMXT, was kindly provided by J. Lindstrom (University of Pennsylvania, USA). Constructs of human nAChR subunits were linearized and used for in vitro cRNA transcription with the SP6/T7 mMessage mMachine transcription kit (AMBION, Forster City, CA, USA).
(§2) The cRNA concentration was verified spectrophotometrically and by gel electrophoresis.
(§3) Electrophysiological recordings were conducted 2–5 days after cRNA injection using a HiClamp automated two-electrode voltage-clamp screening system (MultiChannel Systems GmbH, Reutlingen, Germany) with a holding potential of –80 mV. To prevent the activation of endogenous Ca^2+-activated chloride channels due to the Ca^2+ permeability of α9-containing nAChRs, oocytes were preincubated with 100 μM BAPTA-AM for approximately 3 h.
For concentration–response experiments assessing modulation of ACh-evoked responses, oocytes were initially superfused with ND96 or ND115 solution, depending on the receptor subtype. […] After ACh application, a 3 min washout was performed. Oocytes were then incubated with the test compound for 5 min, followed by coapplication of the compound and ACh in a continuously flowing bath solution. All compounds were prepared in ND96 or ND115 with 0.1% bovine serum albumin (BSA).

hα9α10 nAChRs [4] = target: T2, hα9α10 nAChRs; assay: Two-electrode voltage clamp, compound-evoked currents (compound applied alone) at hα9α10 nAChRs in Xenopus laevis oocytes; type: cell-based; settings: for n H (Hill coefficient of activation): compound applied alone; for EC50: compound applied alone (300 pM to 30 μM), normalized to response at highest concentration
From the text: as §1, §2, §3
Concentration–response experiments assessing compound-evoked currents were performed by initially superfusing α9-containing nAChRs oocytes with ND115 solution. Test compounds were then applied at concentrations ranging from 300 pM to 30 μM, followed by a 3 min washout period.

hα7 nAChRs [5] = target: T3, hα7 nAChRs (Homo sapiens, UniProt P36544); assay: Two-electrode voltage clamp, inhibition of ACh-evoked currents at hα7 nAChRs in Xenopus laevis oocytes; type: cell-based; settings: for n H (Hill coefficient of inhibition) / IC50: 100 μM ACh; for IC50: 5 min preincubation
T3 construct: host or cells: Xenopus laevis oocytes, cRNA-injected (10 ng)

hα9 nAChRs [6] = target: T1, hα9 nAChRs; assay: Two-electrode voltage clamp, inhibition of ACh-evoked currents at hα9 nAChRs in Xenopus laevis oocytes; type: cell-based; settings: for n H (Hill coefficient of inhibition) / IC50: 50 μM ACh; for IC50: 5 min preincubation
hα7 nAChRs [7] = target: T3, hα7 nAChRs; assay: Two-electrode voltage clamp, compound-evoked currents at hα7 nAChRs in Xenopus laevis oocytes; type: cell-based; settings: compound applied alone
Experimental: Additionally, five compounds of the series were tested on the homomeric hα7 and hα9 nAChRs.
as §1, §2, §3

hα9α10 nAChRs [8] = target: T2, hα9α10 nAChRs; assay: cell-based

T3 sequence (P36544 23-502): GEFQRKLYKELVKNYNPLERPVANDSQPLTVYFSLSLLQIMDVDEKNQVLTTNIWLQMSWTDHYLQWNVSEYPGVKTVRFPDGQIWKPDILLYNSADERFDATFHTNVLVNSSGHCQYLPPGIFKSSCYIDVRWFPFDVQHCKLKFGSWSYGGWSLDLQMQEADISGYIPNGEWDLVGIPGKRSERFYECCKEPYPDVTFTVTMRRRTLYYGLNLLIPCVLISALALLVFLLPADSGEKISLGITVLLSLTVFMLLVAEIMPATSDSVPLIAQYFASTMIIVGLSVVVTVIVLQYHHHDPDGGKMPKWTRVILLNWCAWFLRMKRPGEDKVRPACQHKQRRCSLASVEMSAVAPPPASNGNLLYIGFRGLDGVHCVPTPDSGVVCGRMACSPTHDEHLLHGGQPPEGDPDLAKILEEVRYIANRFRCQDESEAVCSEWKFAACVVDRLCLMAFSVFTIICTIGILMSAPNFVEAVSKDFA
T1 sequence (Q9UGM1 26-479 limits assumed): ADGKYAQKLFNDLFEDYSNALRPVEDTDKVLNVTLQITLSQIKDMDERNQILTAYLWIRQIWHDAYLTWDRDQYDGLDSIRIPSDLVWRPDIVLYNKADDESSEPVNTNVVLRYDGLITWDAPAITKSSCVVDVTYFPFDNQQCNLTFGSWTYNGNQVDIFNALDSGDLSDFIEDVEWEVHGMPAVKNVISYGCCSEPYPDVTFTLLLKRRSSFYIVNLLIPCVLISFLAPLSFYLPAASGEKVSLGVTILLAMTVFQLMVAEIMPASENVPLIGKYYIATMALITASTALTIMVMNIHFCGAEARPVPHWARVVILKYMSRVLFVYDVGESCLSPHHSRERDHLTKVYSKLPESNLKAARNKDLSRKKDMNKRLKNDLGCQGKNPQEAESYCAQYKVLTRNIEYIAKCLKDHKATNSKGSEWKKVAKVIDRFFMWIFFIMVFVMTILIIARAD
T2 sequence (Q9UGM1 26-479 limits assumed): as above
T2 sequence (Q9GZZ6 25-450): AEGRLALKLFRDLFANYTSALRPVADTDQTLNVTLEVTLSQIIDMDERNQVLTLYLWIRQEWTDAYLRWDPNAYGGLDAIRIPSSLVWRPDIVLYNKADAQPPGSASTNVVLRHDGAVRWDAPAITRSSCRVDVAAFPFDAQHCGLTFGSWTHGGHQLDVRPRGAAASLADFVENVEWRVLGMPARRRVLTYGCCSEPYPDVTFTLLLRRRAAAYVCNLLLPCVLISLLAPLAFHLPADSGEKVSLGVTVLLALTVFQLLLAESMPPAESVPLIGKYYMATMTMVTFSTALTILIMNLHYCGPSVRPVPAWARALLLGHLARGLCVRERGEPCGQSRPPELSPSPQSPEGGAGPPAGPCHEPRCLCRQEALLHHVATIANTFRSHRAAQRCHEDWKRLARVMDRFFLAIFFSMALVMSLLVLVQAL

Row | SMILES | Effect on the inhibitory effect of ACh on BzATP-induced IL-1β release ([1]; compound 100 pM + ACh 10 μM) | Effect on BzATP-induced IL-1β release in the absence of ACh ([1]; compound 100 pM) | Effect on the inhibitory effect of ACh on BzATP-induced IL-1β release ([1]; compound 100 nM + ACh 10 μM) | Effect on BzATP-induced IL-1β release in the absence of ACh ([1]; compound 100 nM) | EC50 ratio to Cpd 1 (hα9 nAChRs [2]) | n H (Hill coefficient of activation) (hα9 nAChRs [2]) | EC50 (hα9 nAChRs [2]; read-out: EC50) | IC50 ratio to Cpd 1 (hα9α10 nAChRs [3]) | n H (Hill coefficient of inhibition) (hα9α10 nAChRs [3]) | IC50 (hα9α10 nAChRs [3]) | EC50 ratio to Cpd 1 (hα9α10 nAChRs [4]) | n H (Hill coefficient of activation) (hα9α10 nAChRs [4]) | EC50 (hα9α10 nAChRs [4]; read-out: EC50) | IC50 ratio to Cpd 1 (hα7 nAChRs [5]) | n H (Hill coefficient of inhibition) (hα7 nAChRs [5]) | IC50 (hα7 nAChRs [5]) | IC50 ratio to Cpd 1 (hα9 nAChRs [6]) | n H (Hill coefficient of inhibition) (hα9 nAChRs [6]) | IC50 (hα9 nAChRs [6]) | EC50 (hα7 nAChRs [7]) | other results
1 | CC[N+](CC)(CC)CCOc1ccc(/C=C/c2ccccc2)cc1 [Compound 1, 2-triethylammonium ethyl ether of 4-stilbenol] | efficiently antagonized the inhibitory effect of ACh | only slightly reduced | efficiently antagonized the inhibitory effect of ACh | only slightly reduced; also recorded: failed to reduce IL-1β release |  |  |  |  |  |  |  |  |  |  |  |  |  |  |  |  | IC50 (hα7; 200 μM ACh): 41 nM; IC50 (hα7; 1 mM ACh): 1990 nM; IC50 (chick α7 nAChRs; chick α7, 100 μM ACh, ref: citation number not given): 90 to 110 nM; Currents evoked when applied alone (chick α7 nAChRs; wild-type chick α7 nAChRs, ref: previous findings, citation number not given): did not evoke currents; Ki (α7-nAChR): 104 nM
2 | C[N+](C)(CCOc1ccc(CCc2ccccc2)cc1)C1CCCCC1.[I-] [Compound 16, N,N-Dimethyl-N-(2-(4-phenethylphenoxy)ethyl)cyclohexanaminium Iodide] | efficiently antagonized the inhibitory effect of ACh | minor reduction |  | effectively and significantly inhibited | 1.1 | 2.4 | 983 nM | 2.8 | 3.8 | 168 nM | 1.3 | 3.2 | 482 nM | 1.0 | 1.8 | 434 nM | 0.7 | 1.5 | 133 nM | no agonist activity | 
3 | C[N+](C)(CCOc1ccc(OCc2ccccc2)cc1)C1CCCCC1.[I-] [Compound 21, N-(2-(4-(Benzyloxy)phenoxy)ethyl)-N,N-dimethylcyclohexanaminium Iodide] | efficiently antagonized the inhibitory effect of ACh | minor reduction | mild antagonistic effects | effectively and significantly inhibited | 1.0 | 2.2 | 905 nM | 0.6 | 1.7 | 39.1 nM | 0.9 | 3.7 | 338 nM | 1.0 | 1.5 | 419 nM | 0.9 | 1.6 | 171 nM | No activity | 
4 | C[N+](C)(CCOc1ccc(COc2ccccc2)cc1)C1CCCCC1.[I-] [Compound 22, N,N-Dimethyl-N-(2-(4-(phenoxymethyl)phenoxy)ethyl)cyclohexanaminium Iodide] | efficiently antagonized the inhibitory effect of ACh | minor reduction | mild antagonistic effects | effectively and significantly inhibited |  |  |  | 0.3 | 1.7 | 16 nM |  |  |  | 0.8 | 1.5 | 336 nM | 0.1 | 1.5 | 26.2 nM | lacked agonist activity; also recorded: No activity | EC50 (hα9 nAChRs [2]): did not elicit any current; also recorded: lacked agonist activity; also recorded: No activity; EC50 (hα9α10 nAChRs [4]): failed to activate; also recorded: lacked agonist activity; also recorded: No activity
5 | CC[C@H](C)[C@@H]1NC(=O)[C@H](CC(=O)O)NC(=O)[C@@H]2CCCN2C(=O)[C@H](CC(N)=O)NC(=O)[C@H](CC(N)=O)NC(=O)[C@H](C(C)C)NC(=O)[C@H](CO)NC(=O)[C@@H]2CSSC[C@H](NC(=O)CN)C(=O)N[C@@H](CSSC[C@@H](C(N)=O)NC1=O)C(=O)N[C@@H](CO)C(=O)N[C@@H](Cc1c[nH]cn1)C(=O)N1CCC[C@H]1C(=O)N[C@@H](C)C(=O)N2 [α-conotoxin Mr1.1] (H-GCCSHPACSVNNPDIC-NH2; disulfide 2-8, 3-16) |  |  |  |  |  |  |  |  |  |  |  |  |  |  |  |  |  |  |  |  | Hill coefficient (n H) (hα9α10 nAChRs [8]): 1.3
6 | CC[C@H](C)[C@@H]1NC(=O)[C@H](CC(=O)O)NC(=O)[C@@H]2CCCN2C(=O)[C@H](CC(N)=O)NC(=O)[C@H](CC(N)=O)NC(=O)[C@H](C(C)C)NC(=O)[C@H](CO)NC(=O)[C@@H]2CSSC[C@H](NC(=O)CN)C(=O)N[C@@H](CSSC[C@@H](C(N)=O)NC1=O)C(=O)N[C@@H](CO)C(=O)N[C@@H](Cc1cnc[nH]1)C(=O)N1CCC[C@H]1C(=O)N[C@@H](C)C(=O)N2 [α-conotoxin Mr1.1] (H-GCCSHPACSVNNPDIC-NH2; disulfide 2-8, 3-16) |  |  |  |  |  |  |  |  |  |  |  |  |  |  |  |  |  |  |  |  | IC50 (hα9α10 nAChRs [8]): 82.9 nM
